In patent publication US20230322657A1, “CRYSTALLINE EDG-2 RECEPTOR ANTAGONIST AND METHODS OF MAKING” (Sanofi, priority 2020, published 2023):
≈ marks a conversion by molar mass, not a printed value.

Assays:
[1] = tested on: mouse model of skin fibrosis; settings: cited from earlier work
[2] = Estimated hot solubility in solvents at elevated temperature (approximately solvent boiling point); type: physicochemical
Protocol: Compound I was dissolved in a variety of solvents at elevated temperature (approximately at solvent boiling point) to provide solutions of Compound I with a maximum concentration of 15 mg/mL. The input material in these experiments was a mixture of polymorphic forms 1, 2, and 3.
When concentrations of Compound I was greater than 2 mg/mL, the solutions were filtered and evaporated at 25° C. to isolate the solid.

[3] = tested on: patients with diffuse cutaneous systemic sclerosis SSc (dcSSc); settings: cited from earlier work
[4] = Slurry conversion study at 40-70° C., Form 1/Form 2 1:1 mixture; type: physicochemical
Protocol: Slurry converstion studies were also conducted at 40-70° C. with Forms 1 and 2 to determine a transition temperature between the forms. A mixture of Form 1 and Form 2 at a (1:1 ratio) was slurried at 40° C., 50° C., 60° C., and 70° C. in two different solvents at each temperature and then analyzed to determine the direction of transformation. At 40° C. and 50° C., Methanol and MEK were used. At 60° C. and 70° C. MEK and 1-Pentanol were used.

[5] = Solubility of polymorphs at pH 7.4 in phosphate buffer at 25° C.; type: physicochemical; settings: pH 7.4 phosphate buffer; for Solubility, concentration (equilibrium): 24 hr
Protocol: The solubility of the different polymorphs was determined at pH 7.4 in phosphate buffer at 25° C. Samples were analyzed as a function of time for each form to determine the equilibrium values. The residual solids from each sample were analyzed to verify that the form was unchanged during the experiment. The concentration (mg/mL) versus time data is listed below for each form: […]

[6] = Slurry stability study at room temperature (25° C.), 4 weeks, analysis by FTIR; type: physicochemical; settings: for Final form after slurry: 25° C., 4 weeks, FTIR
Protocol: Slurry stability Maturation studies were initially conducted for the purpose of identifying the most […] stable form at room temperature (25° C.
In this set of experiments, both the individual forms and mixtures of forms were slurried in several solvents for 4 weeks, then filtered and analyzed to determine the resulting form. The first set of experiments included pure Form 1, Form 2, Form 3, and mixtures of these forms in equal amounts. The solvents included methanol, ethyl acetate, MEK, and methyl THF in order to investigate a range of solvent polarity. Additional experiments were conducted with a mixture of Form 1 and Form 4 in MEK and methanol.
Analysis was performed by FTIR due to ease of analysis for small quantities. It is interesting to note that the acid carbonyl is shifted to a different location for each polymorph. The results for the first set of experiments are listed below, comparing the starting form with the final form.

[7] = Dynamic vapor sorption (DVS); type: physicochemical; settings: 25° C.
Protocol: Moisture sorption/desorption isotherms are recorded on a DVS-1 from SURFACE MEASUREMENT SYSTEMS. Two cycles are run at 25° C., in which the Relative Humidity (RH) is stepped from 0 to 95% and back to 0%. The data is evaluated with the software DVSWin V. 2.15.

In the case of `COc1ccc(C(=O)NC2(C(=O)O)Cc3ccccc3C2)cc1OCCc1cccc(C)c1` [Compound I, 2-(4-methoxy-3-(3-methylphenethoxy)benzamido)-2,3-dihydro-1H-indene-2-carboxylic acid], the Collagen content [1] is given as “reduced”, the Dermal thickening [1] is given as “reversed” and the Myofibroblast differentiation [1] is given as “significantly inhibited”. The “Hot Solubility (est)” value ([2]; 1-Butanol) was over 10000 µg/mL, the “Hot Solubility (est)” value ([2]; 1-Pentanol) was over 10000 µg/mL and the “Hot Solubility (est)” value ([2]; Acetone) was over 10000 µg/mL. The “Hot Solubility (est)” value ([2]; Ethanol) was over 10000 µg/mL, the “Hot Solubility (est)” value ([2]; Hexane) was under 2000 µg/mL and the “Hot Solubility (est)” value ([2]; Isobutyl Alcohol) was over 10000 µg/mL. The “Hot Solubility (est)” value ([2]; Methanol) was over 10000 µg/mL, the “Hot Solubility (est)” value ([2]; Water) was under 2000 µg/mL and the Outcome measures [3] was “improved”. For the same molecule, the Target engagement [3] was “demonstrated”.
In the case of `COc1ccc(C(=O)NC2(C(=O)O)Cc3ccccc3C2)cc1OCCc1cccc(C)c1` [mixture of Form 1 and Form 2], the “Form after slurry (direction of transformation)” value ([4]; 1-Pentanol, 60° C.) is reported as “Form 2”, the “Form after slurry (direction of transformation)” value ([4]; 1-Pentanol, 70° C.) is reported as “Form 2” and the “Form after slurry (direction of transformation)” value ([4]; MEK, 40° C.) is reported as “Form 1”. The “Form after slurry (direction of transformation)” value ([4]; MEK, 50° C.) was “Form 1”, the “Form after slurry (direction of transformation)” value ([4]; MEK, 60° C.) was “Form 2” and the “Form after slurry (direction of transformation)” value ([4]; MEK, 70° C.) was “Form 2”. The “Form after slurry (direction of transformation)” value ([4]; Methanol, 40° C.) was “Form 1” and the “Form after slurry (direction of transformation)” value ([4]; Methanol, 50° C.) was “Form 1”.
For `COc1ccc(C(=O)NC2(C(=O)O)Cc3ccccc3C2)cc1OCCc1cccc(C)c1` [Form 4, 2-(4-methoxy-3-(3-methylphenethoxy)benzamido)-2,3-dihydro-1H-indene-2-carboxylic acid], the “Equilibrium solubility at 24 hours compared with Form 1” value [5] was “more than double” and the “Solubility, concentration (equilibrium)” value [5] was 102 µg/mL (≈ 229 µM).
For `COc1ccc(C(=O)NC2(C(=O)O)Cc3ccccc3C2)cc1OCCc1cccc(C)c1` [Form 2, 2-(4-methoxy-3-(3-methylphenethoxy)benzamido)-2,3-dihydro-1H-indene-2-carboxylic acid], the “Final form after slurry” value ([6]; Ethyl Acetate) was “Form 2”, the “Final form after slurry” value ([6]; MEK) was “Form 1” and the “Final form after slurry” value ([6]; Methanol) was “Form 2”. For the same molecule, the “Final form after slurry” value ([6]; Methyl THF) was “Form 2”, the solubility at 24 h ([5]; aqueous buffer, thermodynamic from solid, read-out: Solubility, concentration (equilibrium)) was 57 µg/mL (≈ 128 µM) and the “24 hour solubility, greater than Form 1 by” value [5] was “more than 30%”.
In the case of `COc1ccc(C(=O)NC2(C(=O)O)Cc3ccccc3C2)cc1OCCc1cccc(C)c1` [Form 3, 2-(4-methoxy-3-(3-methylphenethoxy)benzamido)-2,3-dihydro-1H-indene-2-carboxylic acid], the “Final form after slurry” value ([6]; Ethyl Acetate) is reported as “Form 1”, the “Final form after slurry” value ([6]; MEK) is reported as “Form 1” and the “Final form after slurry” value ([6]; Methanol) is reported as “Form 1”. For the same molecule, the “Final form after slurry” value ([6]; Methyl THF) was “Form 1”, the “Equilibrium solubility at 24 hours compared with Form 1” value [5] was “more than double” and the “Solubility, concentration (equilibrium)” value [5] was 97 µg/mL (≈ 218 µM).
With `COc1ccc(C(=O)NC2(C(=O)O)Cc3ccccc3C2)cc1OCCc1cccc(C)c1` [Forms 1, 2, 3] the “Final form after slurry” value ([6]; MEK) was “Form 1”, the “Final form after slurry” value ([6]; Methanol) was “Form 1” and the “Final form after slurry” value ([6]; Methyl THF) was “Form 1”.
With `COc1ccc(C(=O)NC2(C(=O)O)Cc3ccccc3C2)cc1OCCc1cccc(C)c1` [Form 1, 2-(4-methoxy-3-(3-methylphenethoxy)benzamido)-2,3-dihydro-1H-indene-2-carboxylic acid] the “Final form after slurry” value ([6]; Ethyl Acetate) was “Form 1”, the “Final form after slurry” value ([6]; MEK) was “Form 1” and the “Final form after slurry” value ([6]; Methanol) was “Form 1”. For the same molecule, the “Final form after slurry” value ([6]; Methyl THF) was “Form 1”, the “Relative stability of the crystal forms” value ([6]; room temperature (25° C.)) was “most stable form” and the “Reversible water uptake (bound)” value [7] was “less than 1%”. For the same molecule, the Reversible water uptake ([7]; between 0 and 95% RH) was about −0.1 % w/w.
For `COc1ccc(C(=O)NC2(C(=O)O)Cc3ccccc3C2)cc1OCCc1cccc(C)c1` [mixtures of Form 4 and Form 1], the “Final form after slurry” value ([6]; MEK) was “Form 1” and the “Final form after slurry” value ([6]; Methanol) was “Form 1”.
